# Tests used:
# HLA A*3001 = HLA A*3001 (Homo sapiens, UniProt P04439, D140H/D185E/E176W/F33S/G80R/H175R/K168Q/R138E/R41S); assay: biochemical; assay type: binding
# HLA A*3201 = HLA A*3201 (Homo sapiens, UniProt P04439, A270S/D101S/D185E/E176V/E277Q/F133L/G103R/G107R/G231S/H175R/I121M/I218V/I322F/K168Q/L105A/L300P/L318F/M331R/P208A/P217A/Q94H/R106L/R138Q/S129P/T104I/T323A/T345S/V100E/V321M/V358M); assay: biochemical; assay type: binding
# HLA A*6802 = HLA A*6802 (Homo sapiens, UniProt P04439, A269V/D140Y/D185E/E176V/E277Q/E87N/F33Y/G231S/I121R/I166T/I218V/L180W/L300P/L318F/N151K/P208A/P217A/Q86R/R138H/R169H/S129P/T345S/V36M); assay type: binding
# HLA B*0702 = HLA B*0702 (Homo sapiens, UniProt P01889); assay type: binding; settings: positional scanning combinatorial 9-mer library; normalized to 1.0 for the best residue at each position
# HLA B*0801 = HLA B*0801 (Homo sapiens, UniProt P01889, A93T/A95T/D138N/E176V/E187T/K202T/Q94N/R180D/S35A/V36M/Y33D/Y91F); assay: biochemical; assay type: binding
# HLA B*1501 = HLA B*1501 (Homo sapiens, UniProt P01889, A329T/A93T/A95T/C349S/D201E/D98Y/E187L/E204Q/E69M/E70A/K202T/N87E/Q94N/R155S/R180W/S121R/S35A/S48A/V306I/V36M/Y140S/Y91S); assay: biochemical; assay type: binding
# HLA B*1503 = HLA B*1503 (Homo sapiens, UniProt P01889, A329T/A93T/A95T/C349S/D201E/D98Y/E187L/E204Q/K202T/N87E/Q94N/R155S/R180L/S121R/S35A/V306I/V36M/Y140S/Y91S); assay: biochemical; assay type: binding
# HLA B*2705 = HLA B*2705 (Homo sapiens, UniProt P01889, D138H/D201E/E176V/E204Q/G107R/H137Y/K202T/N104T/N87E/Q56L/Q94K/R106L/R155S/R180L/S101D/S121N/S48T/Y140D/Y33H/Y91C); assay type: binding; settings: positional scanning combinatorial 9-mer library; normalized to 1.0 for the best residue at each position
# HLA B*3501 = HLA B*3501 (Homo sapiens, UniProt P01889, A329T/A93T/A95T/C349S/D201E/D98Y/E176V/E187L/E204Q/E69T/I218V/K202T/L119I/Q94N/R155S/R180L/S121R/S35A/S48A/T118I/V127L/V306I/V36M/Y140S/Y91F); assay type: binding
# HLA B*5101 = HLA B*5101 (Homo sapiens, UniProt P01889, A329T/A93T/A95T/C349S/D138N/D201E/D98Y/E187L/E204Q/E69T/G107R/I218V/K202T/L105A/L119W/N104I/Q94N/R106L/R155S/R180L/S101N/S121T/S35A/S48A/V306I/V36M/Y195H/Y91F); assay type: binding
# HLA B*5301 = HLA B*5301 (Homo sapiens, UniProt P01889, A329T/A93T/A95T/C349S/D201E/D98Y/E176V/E187L/E204Q/E69T/G107R/I218V/K202T/L105A/L119I/N104I/Q94N/R106L/R155S/R180L/S101N/S121R/S35A/S48A/T118I/V127L/V306I/V36M/Y140S/Y91F); assay type: binding
# HLA B*5401 = HLA B*5401 (Homo sapiens, UniProt P01889, A329T/C349S/D138N/D201E/E176V/E187T/E204Q/E69G/I76V/K202T/L119W/R155S/R180L/S121T/S35A/S48A/V127L/V306I/V36M/Y140L); assay type: binding
# HLA B*5801 = HLA B*5801 (Homo sapiens, UniProt P01889, A329T/C349S/D201E/D98Y/E176V/E187L/E204Q/E69T/G107R/I218V/I90N/K202T/L105A/L119I/N104I/N87E/Q89R/Q94S/R106L/R155S/R180L/R86G/S101N/S121R/S35A/S48A/T118I/V127L/V306I/V36M/Y140S/Y91M); assay type: binding
# HLA B*5802 = HLA B*5802 (Homo sapiens, UniProt P01889, A329T/C349S/D201E/D98Y/E176V/E187L/E204Q/E69T/G107R/I218V/I90N/K202T/L105A/N104I/N87E/Q89R/Q94S/R106L/R155S/R180L/R86G/S101N/S121W/S35A/S48A/V127L/V306I/V36M/Y140S/Y91M); assay type: binding
# H-2 D^b = H-2 D^b (Mus musculus, UniProt P01899); assay type: binding
# H-2 D^d = H-2 D^d (Mus musculus, UniProt P01900); assay type: binding
# H-2 K^k = H-2 K^k (Mus musculus, UniProt P04223); assay type: binding
# HLA A*0201 = HLA A*0201 (Homo sapiens, UniProt P04439, D140Y/D185E/D98H/E176V/E277Q/G131W/G231S/I119V/I121R/I166T/I218V/L300P/L318F/N151K/N90K/P208A/P217A/Q86G/Q94H/R138H/R169H/T345S); settings: positional scanning combinatorial 9-mer library; normalized to 1.0 for the best residue at each position
# Sequence of H-2 D^d (P01900 whole entry, looked up): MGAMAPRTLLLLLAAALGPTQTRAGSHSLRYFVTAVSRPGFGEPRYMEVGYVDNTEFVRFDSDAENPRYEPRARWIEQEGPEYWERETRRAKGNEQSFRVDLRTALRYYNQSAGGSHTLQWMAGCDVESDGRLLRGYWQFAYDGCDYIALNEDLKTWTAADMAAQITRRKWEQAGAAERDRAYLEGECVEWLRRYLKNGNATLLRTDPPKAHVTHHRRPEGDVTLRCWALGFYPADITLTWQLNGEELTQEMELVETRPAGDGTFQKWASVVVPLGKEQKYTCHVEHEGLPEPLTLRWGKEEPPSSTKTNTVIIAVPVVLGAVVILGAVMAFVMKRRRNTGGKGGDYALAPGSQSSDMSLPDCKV
# Sequence of H-2 D^b (P01887 21-119): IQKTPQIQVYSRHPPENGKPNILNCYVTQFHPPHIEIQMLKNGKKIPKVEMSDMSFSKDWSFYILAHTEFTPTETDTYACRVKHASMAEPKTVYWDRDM
# Sequence of H-2 D^b (P01899 25-362): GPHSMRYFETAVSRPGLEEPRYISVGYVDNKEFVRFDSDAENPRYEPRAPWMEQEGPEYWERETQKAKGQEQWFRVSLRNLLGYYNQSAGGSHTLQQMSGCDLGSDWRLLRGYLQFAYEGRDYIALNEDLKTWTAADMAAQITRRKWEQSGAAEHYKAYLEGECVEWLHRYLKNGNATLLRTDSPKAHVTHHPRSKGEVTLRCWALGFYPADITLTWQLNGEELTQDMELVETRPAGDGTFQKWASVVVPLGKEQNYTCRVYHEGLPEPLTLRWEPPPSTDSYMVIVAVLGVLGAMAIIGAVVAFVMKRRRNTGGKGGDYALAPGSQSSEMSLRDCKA
# Sequence of H-2 K^k (P01887 21-119): as the sequence (P01887 21-119) above
# Sequence of H-2 K^k (P04223 22-369): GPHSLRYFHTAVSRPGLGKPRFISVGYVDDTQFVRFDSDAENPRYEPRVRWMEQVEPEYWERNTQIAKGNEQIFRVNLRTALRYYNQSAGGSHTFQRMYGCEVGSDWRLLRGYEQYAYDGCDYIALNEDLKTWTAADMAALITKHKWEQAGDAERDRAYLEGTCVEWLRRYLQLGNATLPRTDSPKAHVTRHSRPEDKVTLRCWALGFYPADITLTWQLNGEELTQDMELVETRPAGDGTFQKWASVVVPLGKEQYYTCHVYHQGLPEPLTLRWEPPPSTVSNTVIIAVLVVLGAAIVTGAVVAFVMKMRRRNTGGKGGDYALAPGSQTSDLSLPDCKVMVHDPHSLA
Sequence,"Normalized average relative binding affinity (ARB), HLA A*3001 (HLA A*3001)","Normalized average relative binding affinity (ARB), HLA A*3201 (HLA A*3201)","Normalized average relative binding affinity (ARB), HLA A*6802 (HLA A*6802)","Normalized average relative binding affinity (ARB), HLA B*0702 (HLA B*0702)","Normalized average relative binding affinity (ARB), HLA B*0801 (HLA B*0801)","Normalized average relative binding affinity (ARB), HLA B*1501 (HLA B*1501)","Normalized average relative binding affinity (ARB), HLA B*1503 (HLA B*1503)","Normalized average relative binding affinity (ARB), HLA B*2705 (HLA B*2705)","Normalized average relative binding affinity (ARB), HLA B*3501 (HLA B*3501)","Normalized average relative binding affinity (ARB), HLA B*5101 (HLA B*5101)","Normalized average relative binding affinity (ARB), HLA B*5301 (HLA B*5301)","Normalized average relative binding affinity (ARB), HLA B*5401 (HLA B*5401)","Normalized average relative binding affinity (ARB), HLA B*5801 (HLA B*5801)","Normalized average relative binding affinity (ARB), HLA B*5802 (HLA B*5802)","Normalized average relative binding affinity (ARB), H-2 Db (H-2 D^b)","Normalized average relative binding affinity (ARB), H-2 Dd (H-2 D^d)","Normalized average relative binding affinity (ARB), H-2 Kk (H-2 K^k)","Normalized average relative binding affinity (ARB), HLA A*0201 (HLA A*0201)"
XXIXXXXXX [3064.0048],0.020,0.60,0.38,0.12,0.15,1.0,0.17,0.22,0.16,0.39,0.26,0.083,0.77,1.0,0.24,0.0041,0.26,0.54
XXKXXXXXX [3064.0049],0.20,0.092,0.11,0.20,0.96,0.53,0.095,0.21,0.096,0.20,0.019,0.015,0.020,0.081,0.028,0.0033,0.39,0.016
XXLXXXXXX [3064.0050],0.033,0.58,0.10,0.071,0.21,0.18,0.043,0.55,0.43,0.54,0.59,0.040,0.61,0.59,1.0,0.0040,0.70,0.57
XXMXXXXXX [3064.0051],0.028,0.94,1.0,1.0,0.90,0.77,0.33,0.87,1.0,1.0,1.0,0.24,0.48,0.57,0.31,0.0095,1.0,1.0
XXNXXXXXX [3064.0052],0.017,0.76,0.27,0.077,0.11,0.46,0.24,0.23,0.32,0.27,0.22,0.14,0.88,0.098,0.25,0.0028,0.40,0.16
XXPXXXXXX [3064.0053],0.0036,0.13,0.043,0.014,0.072,0.32,0.058,0.027,0.089,0.42,0.010,0.013,0.042,0.047,0.38,1.0,0.035,0.056

# — paper PMC2248166, “Quantitative peptide binding motifs for 19 human and mouse MHC class I molecules derived using positional scanning combinatorial peptide libraries” (Immunome Research, 2008)
